Test system: San Carlos virus
Experiment: Dimethylphenols against San Carlos virus in tissue culture (human embryonic lung), CPE
Assay type: cell-based, San Carlos virus (adenovirus)
Conditions: for CPE with TCID50 doses of San Carlos virus: human embryonic lung, 100 TCID50; for anti-viral activity against San Carlos virus: at various concentrations

SMILES: Cc1cccc(O)c1C [2,3-dimethylphenol]
- CPE with TCID50 doses of San Carlos virus (10^-6 grams 2X): 3+ (75% of cells infected with selected virus)
- CPE with TCID50 doses of San Carlos virus (10^-7 grams 2X): 2+ (50% of cells infected with selected virus)
- CPE with TCID50 doses of San Carlos virus (10^-8 grams 2X): 2+ (50% of cells infected with selected virus)
- CPE with TCID50 doses of San Carlos virus (10^-9 grams 2X): 1+ (25% of cells infected with selected virus)
- CPE with TCID50 doses of San Carlos virus (10^-10 grams 2X): 1+ (25% of cells infected with selected virus)
- CPE with TCID50 doses of San Carlos virus (10^-11 grams 2X): 1+ (25% of cells infected with selected virus)
- CPE with TCID50 doses of San Carlos virus (10^-12 grams 2X): 2+ (50% of cells infected with selected virus)
- CPE with TCID50 doses of San Carlos virus (10^-13 grams 2X): 1+ (25% of cells infected with selected virus)
- CPE with TCID50 doses of San Carlos virus (10^-14 grams 2X): 2+ (50% of cells infected with selected virus)
- CPE with TCID50 doses of San Carlos virus (10^-15 grams 2X): 2+ (50% of cells infected with selected virus)
- anti-viral activity against San Carlos virus: exhibit anti-viral activity

SMILES: Cc1ccc(C)c(O)c1 [2,5-dimethylphenol]
- CPE with TCID50 doses of San Carlos virus (10^-6 grams 2X): 3+ (75% of cells infected with selected virus)
- CPE with TCID50 doses of San Carlos virus (10^-7 grams 2X): 2+ (50% of cells infected with selected virus)
- CPE with TCID50 doses of San Carlos virus (10^-8 grams 2X): 1+ (25% of cells infected with selected virus)
- CPE with TCID50 doses of San Carlos virus (10^-9 grams 2X): ± (less than 10% infected)
- CPE with TCID50 doses of San Carlos virus (10^-10 grams 2X): 1+ (25% of cells infected with selected virus)
- CPE with TCID50 doses of San Carlos virus (10^-11 grams 2X): 1+ (25% of cells infected with selected virus)
- CPE with TCID50 doses of San Carlos virus (10^-12 grams 2X): ± (less than 10% infected)
- CPE with TCID50 doses of San Carlos virus (10^-13 grams 2X): ± (less than 10% infected)
- CPE with TCID50 doses of San Carlos virus (10^-14 grams 2X): ± (less than 10% infected)
- CPE with TCID50 doses of San Carlos virus (10^-15 grams 2X): 2+ (50% of cells infected with selected virus)
- anti-viral activity against San Carlos virus: exhibit anti-viral activity

SMILES: Cc1cccc(C)c1O [2,6-dimethylphenol]
- CPE with TCID50 doses of San Carlos virus (10^-6 grams 2X): 2+ (50% of cells infected with selected virus)
- CPE with TCID50 doses of San Carlos virus (10^-7 grams 2X): 2+ (50% of cells infected with selected virus)
- CPE with TCID50 doses of San Carlos virus (10^-8 grams 2X): 1+ (25% of cells infected with selected virus)
- CPE with TCID50 doses of San Carlos virus (10^-9 grams 2X): 2+ (50% of cells infected with selected virus)
- CPE with TCID50 doses of San Carlos virus (10^-10 grams 2X): 1+ (25% of cells infected with selected virus)
- CPE with TCID50 doses of San Carlos virus (10^-11 grams 2X): 3+ (75% of cells infected with selected virus)
- CPE with TCID50 doses of San Carlos virus (10^-12 grams 2X): 2+ (50% of cells infected with selected virus)
- CPE with TCID50 doses of San Carlos virus (10^-13 grams 2X): 2+ (50% of cells infected with selected virus)
- CPE with TCID50 doses of San Carlos virus (10^-14 grams 2X): 1+ (25% of cells infected with selected virus)
- CPE with TCID50 doses of San Carlos virus (10^-15 grams 2X): 1+ (25% of cells infected with selected virus)
- anti-viral activity against San Carlos virus: exhibit anti-viral activity

SMILES: Cc1ccc(O)cc1C [3,4-dimethylphenol, reference compound]
- CPE with TCID50 doses of San Carlos virus (10^-6 grams 2X): 2+ (50% of cells infected with selected virus)
- CPE with TCID50 doses of San Carlos virus (10^-7 grams 2X): 1+ (25% of cells infected with selected virus)
- CPE with TCID50 doses of San Carlos virus (10^-8 grams 2X): 1+ (25% of cells infected with selected virus)
- CPE with TCID50 doses of San Carlos virus (10^-9 grams 2X): 1+ (25% of cells infected with selected virus)
- CPE with TCID50 doses of San Carlos virus (10^-10 grams 2X): 2+ (50% of cells infected with selected virus)
- CPE with TCID50 doses of San Carlos virus (10^-11 grams 2X): 2+ (50% of cells infected with selected virus)
- CPE with TCID50 doses of San Carlos virus (10^-12 grams 2X): 1+ (25% of cells infected with selected virus)
- CPE with TCID50 doses of San Carlos virus (10^-13 grams 2X): 2+ (50% of cells infected with selected virus)
- CPE with TCID50 doses of San Carlos virus (10^-14 grams 2X): 2+ (50% of cells infected with selected virus)
- CPE with TCID50 doses of San Carlos virus (10^-15 grams 2X): 1+ (25% of cells infected with selected virus)

Reference: patent US4084006A, “Method of using dialkylphenols an antiviral agents” (priority 1977, dated 1978)
